From patent publication US7473688B2, “Indolobenzazepine HCV NS5B inhibitors” (Bristol-Myers Squibb Company, priority 2005, dated 2009)
Like-named read-outs stand apart in the source and are kept apart here.

Tests used:
[1] = molecular target: T1, HCV NS5B (Hepatitis C virus genotype 1b, UniProt Q9WMX2); assay: HCV NS5B RdRp enzyme assay (preincubation protocol); assay type: biochemical
T1 construct: The protein was expressed with an 18 amino acid C-terminal truncation to enhance the solubility; made in house; host or cells: E. coli BL21 (DE3), pET21a
T1 sequence (Q9WMX2 2420-2992): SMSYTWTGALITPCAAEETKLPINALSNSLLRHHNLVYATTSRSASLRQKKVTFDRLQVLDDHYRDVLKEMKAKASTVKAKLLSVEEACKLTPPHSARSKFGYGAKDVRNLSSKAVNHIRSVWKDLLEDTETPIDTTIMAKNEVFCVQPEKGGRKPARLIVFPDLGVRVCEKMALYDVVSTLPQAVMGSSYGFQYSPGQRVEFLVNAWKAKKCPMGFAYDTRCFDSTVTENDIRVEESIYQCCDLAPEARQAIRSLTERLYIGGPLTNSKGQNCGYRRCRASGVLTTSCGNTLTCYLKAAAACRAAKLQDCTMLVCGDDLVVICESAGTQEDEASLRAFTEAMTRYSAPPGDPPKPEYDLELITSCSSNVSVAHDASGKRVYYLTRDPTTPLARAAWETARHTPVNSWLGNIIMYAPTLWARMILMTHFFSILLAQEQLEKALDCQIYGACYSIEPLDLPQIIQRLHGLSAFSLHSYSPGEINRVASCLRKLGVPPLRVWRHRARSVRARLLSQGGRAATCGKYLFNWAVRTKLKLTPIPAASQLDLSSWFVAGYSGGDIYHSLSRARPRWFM
Protocol: HCV NS5B RdRp cloning, expression, and purification. The cDNA encoding the NS5B protein of HCV, genotype 1b, was cloned into the pET21a expression vector. The protein was expressed with an 18 amino acid C-terminal truncation to enhance the solubility. The E. coli competent cell line BL21 (DE3) was used for expression of the protein. Cultures were grown at 37° C. for ˜4 hours until the cultures reached an optical density of 2.0 at 600 nm. The cultures were cooled to 20° C. and induced with 1 mM IPTG. Fresh ampicillin was added to a final concentration of 50 μg/ml and the cells were grown overnight at 20° C.
Cell pellets (3L) were lysed for purification to yield 15-24 mgs of purified NS5B. The lysis buffer consisted of 20 mM Tris-HCl, pH 7.4, 500 mM NaCl, 0.5% triton X-100, 1 mM DTT, 1 mM EDTA, 20% glycerol, 0.5 mg/ml lysozyme, 10 mM MgCl2, 15 ug/ml deoxyribonuclease I, and Complete TM protease inhibitor tablets (Roche). After addition of the lysis buffer, frozen cell pellets were resuspended using a tissue homogenizer. To reduce the viscosity of the sample, aliquots of the lysate were sonicated on ice using a microtip attached to a Branson sonicator. The sonicated lysate was centrifuged at 100,000×g for 1 hr at 4° C. and filtered through a 0.2 μm filter unit (Corning).
The protein was purified using three sequential chromatography steps: Heparin sepharose CL-6B, polyU sepharose 4B, and Hitrap SP sepharose (Pharmacia). The chromatography buffers were identical to the lysis buffer but contained no lysozyme, deoxyribonuclease I, MgCl2 or protease inhibitor and the NaCl concentration of the buffer was adjusted according to the requirements for charging the protein onto the column. Each column was eluted with a NaCl gradient which varied in length from 5-50 column volumes depending on the column type. After the final chromatography step, the resulting purity of the enzyme is >90% based on SDS-PAGE analysis. The enzyme was aliquoted and stored at −80° C.
Standard HCV NS5B RdRp enzyme assay. HCV RdRp genotype 1b assays were run in a final volume of 60 μl in 96 well plates (Costar 3912). The assay buffer is composed of 20 mM Hepes, pH 7.5, 2.5 mM KCl, 2.5 mM MgCl2, 1 mM DTT, 1.6 U RNAse inhibitor (Promega N2515), 0.1 mg/ml BSA (Promega R3961), and 2% glycerol. All compounds were serially diluted (3-fold) in DMSO and diluted further in water such that the final concentration of DMSO in the assay was 2%. HCV RdRp genotype 1b enzyme was used at a final concentration of 28 nM. A polyA template was used at 6 nM, and a biotinylated oligo-dT12 primer was used at 180 nM final concentration. Template was obtained commercially (Amersham 27-4110). Biotinylated primer was prepared by Sigma Genosys. 3H-UTP was used at 0.6 μCi (0.29 μM total UTP). Reactions were initiated by the addition of enzyme, incubated at 30° C. for 60 min, and stopped by adding […] of 50 mM EDTA containing SPA beads (4 μg/μl, Amersham RPNQ 0007). Plates were read on a Packard Top Count NXT after >1 hr incubation at room temperature.
Modified HCV NS5B RdRp enzyme assay. A modified enzyme assay was performed essentially as described for the standard enzyme assay except for the following: The biotinylated oligo dT12 primer was precaptured on streptavidin-coated SPA beads by mixing primer and beads in assay buffer and incubating at room temperature for one hour. Unbound primer was removed after centrifugation. The primer-bound beads were resuspended in 20 mM Hepes buffer, pH 7.5 and used in the assay at final concentrations of […] primer and 0.67 μg/μl beads. Order of addition in the assay: Enzyme (14 nM) was added to diluted compound followed by the addition of a mixture of template (0.2 nM), 3H-UTP (0.6 μCi, 0.29 μM), and primer-bound beads, to initiate the reaction; concentrations given are final. Reactions were allowed to proceed for 4 hours at 30° C.
IC50 values for compounds were determined using seven different [I]. […]

[2] = tested on: HCV replicon; assay: HCV replicon FRET assay; assay type: cell-based; conditions: Hepatitis C virus, FRET assay, read-out: EC50*
Excerpt: FRET Assay Preparation. To perform the HCV FRET screening assay, 96-well cell culture plates were used. The FRET peptide (Anaspec, Inc.) (Taliani et al., Anal. Biochem. 1996, 240, 60-67) contains a fluorescence donor, EDANS, near one end of the peptide and an acceptor, DABCYL, near the other end. The fluorescence of the peptide is quenched by […] resonance energy transfer (RET) between the donor and the acceptor, but as the NS3 protease cleaves the peptide the products are released from RET quenching and the fluorescence of the donor becomes apparent. The assay reagent was made as follows: 5× cell Luciferase cell culture lysis reagent from Promega (#E153A) diluted to 1× with dH2O, NaCl added to 150 mM final, the FRET peptide diluted to 20 uM final from a 2 mM stock.
To prepare plates, HCV replicon cells, with or without a Renilla luciferase reporter gene, were trypsinized and placed into each well of a 96-well plate with titrated test compounds added in columns 3 through 12; columns 1 and 2 contained a control compound (HCV protease inhibitor), and the bottom row contained cells without compound. The plates were then placed in a CO2 incubator at 37° C.
Assays. Subsequent to addition of the test compounds described above (FRET Assay Preparation), at various times the plate was removed and Alamar blue solution (Trek Diagnostics, #00-100) was added per well as a measure of cellular toxicity. After reading in a Cytoflour 4000 instrument (PE Biosystems), plates were rinsed with PBS and then used for FRET assay by the addition of 30 ul of the FRET peptide assay reagent described above (FRET Assay Preparation) per well. The plate was then placed into the Cytoflour 4000 instrument which had been set to 340 excite/490 emission, automatic mode for 20 cycles and the plate read in a kinetic mode. Typically, the signal to noise using an endpoint analysis after the reads was at least three-fold. Alternatively, after Alamar blue reading, plates were rinsed with PBS, 50 ul of DMEM (high glucose) without phenol red was added and plates were then used for luciferase assay using the Promega Dual-Glo Luciferase Assay System.
Compound analysis was determined by quantification of the relative HCV replicon inhibition and the relative cytotoxicity values. To calculate cytoxicity values, the average Alamar Blue fluorescence signals from the control wells were set as 100% non-toxic. The individual signals in each of the compound test wells were then divided by the average control signal and multiplied by 100% to determine […]. To calculate the HCV replicon inhibition values, an average background value was obtained from the two wells containing the highest amount of HCV protease inhibitor at the end of the assay period. These numbers were similar to those obtained from naïve Huh-7 cells.
The background numbers were then subtracted from the average signal obtained from the control wells and this number was used as 100% activity. The individual signals in each of the compound test wells were then divided by the averaged control values after background subtraction and multiplied by 100% to determine percent activity. EC50 values for a protease inhibitor titration were calculated as the concentration which caused a 50% reduction in FRET or luciferase activity. The two numbers generated for the compound plate, percent cytoxicity and percent activity were used to determine compounds of interest for further analysis.

SMILES	IC50 ([1]; Table 1, read-out: IC50*)	EC50 ([2]; Table 1)	also measured
COc1ccc2c(c1)CC(NC(=O)N1CCN(S(C)(=O)=O)CC1)Cn1c-2c(C2CCCCC2)c2ccc(C(=O)NS(=O)(=O)N(C)C)cc21 (stereo not drawn)	–	–	IC50 ([1]; Table 1a, read-out: IC50*): 10 to 1000 nM; EC50 ([2]; Table 1a): 30 to 1000 nM
COC(=O)c1ccc2c(C3CCCCC3)c3n(c2c1)CC(C(=O)N1CC2(CCN(C)CC2)C1)=Cc1ccccc1-3	> 1000 nM	1000 to 10000 nM	–
O=C(O)c1ccc2c(C3CCCCC3)c3n(c2c1)CC(C(=O)N1CCC(N2CCCC2=O)CC1)=Cc1ccccc1-3	10 to 1000 nM	70 to 1000 nM	–
O=C(O)c1ccc2c(C3CCCCC3)c3n(c2c1)CC(C(=O)N1CCC(N2CC[C@@H](F)C2)CC1)=Cc1ccccc1-3	10 to 1000 nM	70 to 1000 nM	–
CN(C)S(=O)(=O)NC(=O)c1ccc2c(C3CCCCC3)c3n(c2c1)CC(C(=O)N1CCC(N2CCCCC2=O)CC1)Cc1ccccc1-3 (stereo not drawn)	10 to 1000 nM	70 to 1000 nM	–
CS(=O)(=O)NC(=O)c1ccc2c(C3CCCCC3)c3n(c2c1)CC(C(=O)N1CCC(N2CCCC2=O)CC1)=Cc1ccccc1-3	10 to 1000 nM	1000 to 10000 nM	–
CCN(CC)C(=O)C1CCCN(C(=O)C2=Cc3ccccc3-c3c(C4CCCCC4)c4ccc(C(=O)NS(=O)(=O)N(C)C)cc4n3C2)C1 (stereo not drawn)	10 to 1000 nM	70 to 1000 nM	–
COc1ccc2c(c1)C=C(C(=O)N1CCN(c3ccccn3)CC1)Cn1c-2c(C2CCCCC2)c2ccc(C(=O)NS(=O)(=O)N(C)C)cc21	–	–	IC50 ([1]; Table 1b, read-out: IC50*): 20 to 1000 nM; EC50 ([2]; Table 1b): 30 to 1000 nM
CCOC(=O)[C@H]1C[C@@H](O)CN1C(=O)C1=Cc2cc(OC)ccc2-c2c(C3CCCCC3)c3ccc(C(=O)NS(=O)(=O)N(C)C)cc3n2C1	–	–	IC50 ([1]; Table 1a, read-out: IC50*): < 20 nM; EC50 ([2]; Table 1a): 30 to 1000 nM
C[C@@H]1CN(C(=O)C2=Cc3ccccc3-c3c(C4CCCCC4)c4ccc(C(=O)NS(=O)(=O)N5CCOCC5)cc4n3C2)C[C@H](C)O1	10 to 1000 nM	70 to 1000 nM	–
CN(C)S(=O)(=O)NC(=O)c1ccc2c(C3CCCCC3)c3n(c2c1)CC(C(=O)N1CCN2C(=O)c4ccccc4C2C1)=Cc1ccccc1-3 (stereo not drawn)	10 to 1000 nM	70 to 1000 nM	–
CN(C)S(=O)(=O)NC(=O)c1ccc2c(C3CCCCC3)c3n(c2c1)CC(C(=O)NC1CCOCC1)=Cc1ccccc1-3	10 to 1000 nM	70 to 1000 nM	–
COC(=O)c1ccc2c(C3CCCCC3)c3n(c2c1)CC(NC(=O)N1C[C@@H](C)O[C@@H](C)C1)Cc1cc(OC)ccc1-3 (stereo partly drawn)	–	–	IC50 ([1]; Table 1a, read-out: IC50*): 10 to 1000 nM; EC50 ([2]; Table 1a): 30 to 1000 nM
COc1ccc2c(c1)C=C(C(=O)N1CCN(CC(F)(F)F)CC1)Cn1c-2c(C2CCCCC2)c2ccc(C(=O)NS(=O)(=O)N(C)C)cc21 [drawing 393]	–	–	IC50 ([1]; Table 1b, read-out: IC50*): 20 to 1000 nM; EC50 ([2]; Table 1b): 30 to 1000 nM
C[C@@H]1CN(C(=O)C2=Cc3ccccc3-c3c(C4CCCCC4)c4ccc(C(=O)NS(=O)(=O)N5CCN(C)CC5)cc4n3C2)C[C@H](C)O1	10 to 1000 nM	70 to 1000 nM	–
